Where two headings read alike, the source gives them in different places.
Test: PK Phase (Group 2): plasma concentrations and pharmacokinetics of Compound 18 and its metabolite Compound 4 after once daily ocular instillation of Compound 18 nanosuspension for 7 days
Format: in vivo, New Zealand white rabbits
From the text: This example illustrates the procedures and results for the levels of Compound 18 and its metabolite Compound 4 in plasma and ocular tissues of normotensive rabbits following ocular instillation of Compound 18 once daily for 7 consecutive days.
Twenty five (25) male New Zealand white rabbits were divided into 5 groups of varying amounts of animals per group.
The Test article, Compound 18 was formulated as a 2% nanosuspension in DI water containing 0.2% PS80 (polyoxyethylenesorbitan, monooleate (Tween 80)) and 0.4% HPMC (hydroxypropylmethylcellulose) at pH 6.77. Referred to herein as “Compound 18 nanosuspension.”
The study consisted of three groups (Groups 1-3) of 19 male rabbits (NZW) that underwent once daily morning ocular installation (1 eyedrop) for 7 consecutive days (Day 0-6). Groups 4-5 each consisted of 3 male rabbits (NZW) that were not dosed.
Blood samples (1 mL) were collected from the jugular vein at the intervals set out below for each group. The samples were then inverted several times following collection and held on wet ice until centrifuged. Samples were centrifuged within 60 minutes of collection under refrigeration (set at 5° C. for 10 minutes at 2000 g. […]
Plasma and tissue samples from treated animals (Groups 1-3) were analyzed for Compound 18 and its metabolite Compound 4 concentrations by LC-MS/MS.
Pharmacokinetic analysis was conducted using WinNonlin Version 6.2.1 (Pharsight, Mountain View, Calif.), operating as a validated software system. Noncompartmental analysis was conducted using the extravascular administration model for ocular instillation dosing.
The peak plasma concentration, time to achieve peak plasma concentration, half-life, and area under the plasma concentration-time curve (Cmax, Tmax, T1/2, and AUC) were calculated from the PK phase individual animal plasma concentrations for each sampling time/dose group for Compound 18 and its metabolite Compound 4.
BA Assay: Quantitation Range 0.05 to 100 ng/mL for Compound 18, 0.15 to 100 ng/mL for Compound 4.
Plasma calibration standards (PLSTD-A) with Compound 18 concentrations ranging from 0.0500 to 100 ng/mL were prepared by spiking control rabbit plasma with appropriate calibration curve spiking solutions (SS-A). PLQC-A samples with concentrations of 0.150, 5.00, 50.0, and 80.0 ng/mL were prepared by spiking control rabbit plasma with appropriate SS-A-QC spiking solutions.
Plasma calibration standards (PLSTD-B) with Compound 4 concentrations ranging from 0.150 to 100 ng/mL were prepared by spiking control rabbit plasma with appropriate calibration curve spiking solutions (SS-B). PLQC-B samples with concentrations of 0.450, 5.00, 50.0, and 80.0 ng/mL were prepared by spiking control rabbit plasma with appropriate SS-B-QC spiking solutions. PLQC-B-Dil samples at 800 ng/mL were prepared by spiking control rabbit plasma with the SS-B-QC-Dil spiking solution at 16,000 ng/mL, and then diluted 20× with control rabbit plasma prior to extraction.
1. Thaw plasma standards, plasma QC samples, ocular tissue QC samples, incurred plasma samples and ocular tissue samples (AH/VH) (if applicable) on wet ice. Control plasma can be thawed in tepid water. Vortex before taking aliquots.
2. Pipet 50 μL of water for Reagent Blank, 50 μL of control plasma for Double Blank and Blank, 50 μL of pre-spiked plasma for Standards and QC samples, 50 μL of incurred plasma samples (if applicable) into a 96 well plate.
5. Add 200 μL of working internal standard (WIS) solution to all remaining samples.
6. Seal the plate and vortex for approximately 5 minutes. Centrifuge the plate at 3500 rpm for 10 minutes at ˜4° C.
7. Transfer ˜200 μL of each sample supernatant into the appropriate wells of a 96 well plate. Submit for LC MS/MS analysis.
A total of 25 rabbits were used for this study, including 19 treated rabbits and 6 control rabbits. […]

Structure (SMILES): CCCc1nn(C)c2c(=O)[nH]c(-c3cc(S(=O)(=O)N4CC(CCCO[N+](=O)[O-])C4)ccc3OCC)nc12 [Compound 18, 3-(1-((4-ethoxy-3-(1-methyl-7-oxo-3-propyl-6,7-dihydro-1H-pyrazolo[4,3-d]pyrimidin-5-yl)phenyl)sulfonyl)azetidin-3-yl)propyl nitrate]
- Day 7 Compound 18 Plasma Concentration (0.5 h, animal 207665): BQL (BQL = Below lower limit of quantitation (0.0500 ng/mL for Compound 18)
- Day 1 Compound 18 Plasma Concentration (1 h, animal 207664): BQL^a (BQL = Below lower limit of quantitation (0.0500 ng/mL for Compound 18)
- Day 1 Compound 18 Plasma Concentration (1 h, animal 207665): BQL (BQL = Below lower limit of quantitation (0.0500 ng/mL for Compound 18)
- Day 7 Compound 18 Plasma Concentration (1 h, animal 207665): BQL (BQL = Below lower limit of quantitation (0.0500 ng/mL for Compound 18)
- Day 1 Compound 18 Plasma Concentration (2 h, animal 207664): BQL (BQL = Below lower limit of quantitation (0.0500 ng/mL for Compound 18)
- Day 1 Compound 18 Plasma Concentration (2 h, animal 207665): BQL (BQL = Below lower limit of quantitation (0.0500 ng/mL for Compound 18)
- Day 7 Compound 18 Plasma Concentration (2 h, animal 207665): BQL (BQL = Below lower limit of quantitation (0.0500 ng/mL for Compound 18)
- Day 1 Compound 18 Plasma Concentration (2 h, animal 207666): BQL (BQL = Below lower limit of quantitation (0.0500 ng/mL for Compound 18)
- Day 7 Compound 18 Plasma Concentration (2 h, animal 207667): BQL (BQL = Below lower limit of quantitation (0.0500 ng/mL for Compound 18)
- Day 1 Compound 18 Plasma Concentration (4 h, animal 207664): BQL (BQL = Below lower limit of quantitation (0.0500 ng/mL for Compound 18)
- Day 7 Compound 18 Plasma Concentration (4 h, animal 207664): BQL (BQL = Below lower limit of quantitation (0.0500 ng/mL for Compound 18)
- Day 1 Compound 18 Plasma Concentration (4 h, animal 207665): BQL (BQL = Below lower limit of quantitation (0.0500 ng/mL for Compound 18)
- Day 7 Compound 18 Plasma Concentration (4 h, animal 207665): BQL (BQL = Below lower limit of quantitation (0.0500 ng/mL for Compound 18)
- Day 1 Compound 18 Plasma Concentration (4 h, animal 207667): BQL (BQL = Below lower limit of quantitation (0.0500 ng/mL for Compound 18)
- Day 7 Compound 18 Plasma Concentration (4 h, animal 207667): BQL (BQL = Below lower limit of quantitation (0.0500 ng/mL for Compound 18)
- Day 1 Compound 18 Plasma Concentration (8 h, animal 207664): BQL (BQL = Below lower limit of quantitation (0.0500 ng/mL for Compound 18)
- Day 7 Compound 18 Plasma Concentration (8 h, animal 207664): BQL (BQL = Below lower limit of quantitation (0.0500 ng/mL for Compound 18)
- Day 1 Compound 18 Plasma Concentration (8 h, animal 207665): BQL (BQL = Below lower limit of quantitation (0.0500 ng/mL for Compound 18)
- Day 1 Compound 18 Plasma Concentration (8 h, animal 207666): BQL (BQL = Below lower limit of quantitation (0.0500 ng/mL for Compound 18)
- Day 1 Compound 18 Plasma Concentration (8 h, animal 207667): BQL (BQL = Below lower limit of quantitation (0.0500 ng/mL for Compound 18)
- Day 7 Compound 18 Plasma Concentration (8 h, animal 207667): BQL (BQL = Below lower limit of quantitation (0.0500 ng/mL for Compound 18)
- Day 1 Compound 18 Plasma Concentration (24 h, animal 207664): BQL (BQL = Below lower limit of quantitation (0.0500 ng/mL for Compound 18)
- Day 7 Compound 18 Plasma Concentration (24 h, animal 207664): BQL (BQL = Below lower limit of quantitation (0.0500 ng/mL for Compound 18)
- Day 1 Compound 18 Plasma Concentration (24 h, animal 207665): BQL (BQL = Below lower limit of quantitation (0.0500 ng/mL for Compound 18)
- Day 7 Compound 18 Plasma Concentration (24 h, animal 207665): BQL (BQL = Below lower limit of quantitation (0.0500 ng/mL for Compound 18)
- Day 1 Compound 18 Plasma Concentration (24 h, animal 207667): BQL (BQL = Below lower limit of quantitation (0.0500 ng/mL for Compound 18)
- In-life observations (Groups 1-3, Compound 18 nanosuspension 1 drop/eye/day for 7 days, except animal #207664 discolored skin and rapid respiratory rate on Day 7): normal following dosing
- concentration at 0.5 h (male, New Zealand white, rabbit, plasma, other: ocular instillation (eye drop), 0.821 mg/kg/day, 0.5 h, Mean of 4 animals, BQL set to 0, read-out: Day 7 Compound 18 Plasma Concentration): 0.0811 ng/mL
- concentration at 0.5 h (male, New Zealand white, rabbit, plasma, other: ocular instillation (eye drop), 0.821 mg/kg/day, 0.5 h, animal 207664, read-out: Day 7 Compound 18 Plasma Concentration): 0.0978 ng/mL
- concentration at 0.5 h (male, New Zealand white, rabbit, plasma, other: ocular instillation (eye drop), 0.821 mg/kg/day, 0.5 h, animal 207666, read-out: Day 7 Compound 18 Plasma Concentration): 0.163 ng/mL
- concentration at 0.5 h (male, New Zealand white, rabbit, plasma, other: ocular instillation (eye drop), 0.821 mg/kg/day, 0.5 h, animal 207667, read-out: Day 7 Compound 18 Plasma Concentration): 0.0634 ng/mL
- concentration at 1 h (male, New Zealand white, rabbit, plasma, other: ocular instillation (eye drop), 0.821 mg/kg/day, 1 h, Mean of 4 animals, BQL set to 0, read-out: Day 7 Compound 18 Plasma Concentration): 0.15 ng/mL
- concentration at 1 h (male, New Zealand white, rabbit, plasma, other: ocular instillation (eye drop), 0.821 mg/kg/day, 1 h, animal 207664, read-out: Day 7 Compound 18 Plasma Concentration): 0.306 ng/mL
- concentration at 1 h (male, New Zealand white, rabbit, plasma, other: ocular instillation (eye drop), 0.821 mg/kg/day, 1 h, animal 207666, read-out: Day 7 Compound 18 Plasma Concentration): 0.131 ng/mL
- concentration at 1 h (male, New Zealand white, rabbit, plasma, other: ocular instillation (eye drop), 0.821 mg/kg/day, 1 h, animal 207667, read-out: Day 7 Compound 18 Plasma Concentration): 0.161 ng/mL
- concentration at 2 h (male, New Zealand white, rabbit, plasma, other: ocular instillation (eye drop), 0.821 mg/kg/day, 2 h, Mean of 4 animals, BQL set to 0, read-out: Day 1 Compound 18 Plasma Concentration): 0.0208 ng/mL
- concentration at 2 h (male, New Zealand white, rabbit, plasma, other: ocular instillation (eye drop), 0.821 mg/kg/day, 2 h, Mean of 4 animals, BQL set to 0, read-out: Day 7 Compound 18 Plasma Concentration): 0.0657 ng/mL
- concentration at 2 h (male, New Zealand white, rabbit, plasma, other: ocular instillation (eye drop), 0.821 mg/kg/day, 2 h, animal 207664, read-out: Day 7 Compound 18 Plasma Concentration): 0.188 ng/mL
- concentration at 2 h (male, New Zealand white, rabbit, plasma, other: ocular instillation (eye drop), 0.821 mg/kg/day, 2 h, animal 207666, read-out: Day 7 Compound 18 Plasma Concentration): 0.0747 ng/mL
- concentration at 2 h (male, New Zealand white, rabbit, plasma, other: ocular instillation (eye drop), 0.821 mg/kg/day, 2 h, animal 207667, read-out: Day 1 Compound 18 Plasma Concentration): 0.083 ng/mL
- concentration at 4 h (male, New Zealand white, rabbit, plasma, other: ocular instillation (eye drop), 0.821 mg/kg/day, 4 h, Mean of 4 animals, BQL set to 0, read-out: Day 1 Compound 18 Plasma Concentration): 0.0164 ng/mL
- concentration at 4 h (male, New Zealand white, rabbit, plasma, other: ocular instillation (eye drop), 0.821 mg/kg/day, 4 h, Mean of 4 animals, BQL set to 0, read-out: Day 7 Compound 18 Plasma Concentration): 0.017 ng/mL
- concentration at 4 h (male, New Zealand white, rabbit, plasma, other: ocular instillation (eye drop), 0.821 mg/kg/day, 4 h, animal 207666, read-out: Day 1 Compound 18 Plasma Concentration): 0.0655 ng/mL
- concentration at 4 h (male, New Zealand white, rabbit, plasma, other: ocular instillation (eye drop), 0.821 mg/kg/day, 4 h, animal 207666, read-out: Day 7 Compound 18 Plasma Concentration): 0.0678 ng/mL
- concentration at 8 h (male, New Zealand white, rabbit, plasma, other: ocular instillation (eye drop), 0.821 mg/kg/day, 8 h, Mean of 4 animals, BQL set to 0, read-out: Day 1 Compound 18 Plasma Concentration): 0 ng/mL
